# Where two headings read alike, the source gives them in different places.
# Tests used:
# ZIKV NS2B-NS3pro [1] = target: T1, ZIKV NS2B-NS3pro (Zika virus, UniProt A0A024B7W1, C1582S/C1645S/R1467A/R1531G); conditions: cited from earlier work; for cause of inhibition after resynthesis: parallel study, ref [54]; for mode of inhibition: ref [33]
# ZIKV NS2B-NS3pro [2] = target: T1, ZIKV NS2B-NS3pro; test: ZIKV NS2B-NS3pro inhibitory assay with fluorogenic substrate Bz-Nle-Lys-Lys-Arg-AMC; assay type: biochemical; conditions: for % ZIKV NS2B/NS3pro Inhibition [Enzyme] = 0.2 nM / % ZIKV NS2B/NS3pro Inhibition [Enzyme] = 2 nM: CHAPS 1 mM; for % ZIKV NS2B/NS3pro Inhibition (100 µM) 0.001% Triton: 0.001% Triton X-100, no Tween-20; for % ZIKV NS2B/NS3pro Inhibition (100 µM) 0.01% Triton: 0.01% Triton X-100, no Tween-20; for % ZIKV NS2B/NS3pro Inhibition (100 µM) BSA: 10 min pre-incubation with BSA 1 mg/mL before enzyme; for % ZIKV NS2B/NS3pro Inhibition (100 µM) Without Preincubation: no preincubation; for Hill Slope Replica 1 / Hill Slope Replica 2: from dose-response curve
# [3] = Cytotoxicity MTT assay (CC50); conditions: African green monkey, Vero (ATCC CCL-81) cells
# Method: (§1) The Vero (ATCC® CCL-81™) cell line was used for the cytotoxicity assays and antiviral activity evaluation against ZIKV. Cells were cultured in Eagle’s minimum essential media (MEM) (Cultilab, Campinas, Brazil). The media was supplemented with 5% fetal bovine serum (FBS) (Cultilab, Brazil), in addition to 100 IU/mL penicillin (Cellofarm, Rio De Janeiro, Brazil), 100 μg/mL streptomycin (Merck, Darmstadt, Germany), and 0.25 μg/mL amphotericin B (Cultilab, Brazil).
# (§2) Cells were seeded in 96-well microplates (4.0 × 10^4 cells per well) and incubated at 37 °C and 5% CO2 for 24 h. Then, 200 µL of MEM with 1% FBS containing a serial dilution of the compounds (100 to 12.5 µM) was added. As vehicle control, a serial dilution of DMSO was used. After 72 h of incubation under the same conditions, 100 μL of 3-(4,5-dimethylthiazol-2-yl)-2,5-diphenyltetrazolium bromide (MTT; ThermoFischer Scientific, Waltham, MA, USA) [76] diluted in MEM (0.5 mg/mL) was added to each well and incubated for 3 h. The media was removed, and 100 μL of DMSO was added to each well to solubilize formazan crystals and shaken for 20 min. The absorbance was read at 570 nm using a spectrophotometer (VersaMax, Molecular Devices, San Jose, CA, USA). The percentages of inhibition of cell viability were calculated as the ratio between the absorbance of the compound-treated cells and cells with only the vehicle. […] Linear regression (LR) was used for the analysis, considering results with r^2 > 0.9. All conditions were tested in triplicate and one independent assay (n = 3 data points).
# [4] = tested on: Vero (ATCC CCL-81) cell line; test: Cytotoxicity MTT assay (CC50); conditions: Vero cells
# Method: as §1, §2
# cruzain = cruzain (Trypanosoma cruzi, UniProt P25779); test: Cruzain counter-screening enzyme assay (Z-Phe-Arg-AMC); assay type: biochemical; conditions: 10 min preincubation, pH 5.5
# Method: Cruzain activity was measured by monitoring the fluorescence signal obtained by cleavage of the fluorogenic substrate Z-Phe-Arg-AMC, following a well-established protocol. The fluorescence intensity (excitation λ: 340 nm; emission λ: 440 nm) was monitored for at least 5 min. All assays were performed in sodium acetate 0.1 M at pH 5.5 and β-mercaptoethanol 10 mM. The final protein concentration was 0.1 nM, and the substrate concentration was 2.5 µM. Each condition was tested in triplicate and two independent assays (n = 6 data points), with preincubation of the enzyme for 10 min at 25 °C. Assays were performed at compound concentrations near the IC50 value against ZIKV NS2B-NS3pro.
# [5] = tested on: Vero (ATCC CCL-81) cell line; design: method as in Serafim et al. [64]; conditions: comparison control; ref Serafim et al. [64]; cited from earlier work
# ZIKV (PE243) = tested on: ZIKV (PE243); design: method as in Serafim et al. [64]; conditions: comparison control, ref Serafim et al. [64]; cited from earlier work
# [6] = Solubility in cruzain assay buffer; assay type: physicochemical; conditions: sodium acetate 0.1 M pH 5.5, β-mercaptoethanol 10 mM
# [7] = compound 25 µM (close to IC50), enzyme 0.2 nM
# [8] = compound 100 µM, 10 min preincubation
# [9] = compound 100 µM, 10 min preincubation with enzyme, 0.005% Tween-20, enzyme 0.2 nM
# [10] = compound 100 µM, 0.005% Tween-20
# [11] = compound 10 µM (close to IC50), enzyme 0.2 nM
# [12] = 0.005% Tween-20, enzyme 0.2 nM, substrate 44 µM, read-out: ZIKV NS2B/NS3pro IC50
# [13] = one value per independent assay (two curves per compound), read-out: IC50 of the individual curves for NS2B-NS3pro inhibitors (Figure 3)
# Chain of cruzain (P25779 123-467): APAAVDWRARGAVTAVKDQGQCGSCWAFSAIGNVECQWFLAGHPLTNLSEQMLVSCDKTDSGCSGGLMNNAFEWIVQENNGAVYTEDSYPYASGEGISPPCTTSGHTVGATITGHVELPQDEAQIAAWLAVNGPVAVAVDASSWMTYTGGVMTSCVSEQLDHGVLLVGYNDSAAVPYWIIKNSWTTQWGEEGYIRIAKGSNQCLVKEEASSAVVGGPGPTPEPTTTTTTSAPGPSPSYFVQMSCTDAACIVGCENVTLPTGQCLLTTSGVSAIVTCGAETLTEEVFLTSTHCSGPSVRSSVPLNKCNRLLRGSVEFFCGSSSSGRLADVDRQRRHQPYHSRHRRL
Structure (SMILES),% ZIKV NS2B/NS3pro Inhibition [Enzyme] = 0.2 nM (ZIKV NS2B-NS3pro [2]; [7]),% ZIKV NS2B/NS3pro Inhibition [Enzyme] = 2 nM (ZIKV NS2B-NS3pro [2]; compound 25 µM (close to IC50)),% ZIKV NS2B/NS3pro Inhibition (100 µM) 0.001% Triton (ZIKV NS2B-NS3pro [2]; [8]),% ZIKV NS2B/NS3pro Inhibition (100 µM) 0.01% Triton (ZIKV NS2B-NS3pro [2]; [8]),% ZIKV NS2B/NS3pro Inhibition (100 µM) BSA (ZIKV NS2B-NS3pro [2]; compound 100 µM),% ZIKV NS2B/NS3pro Inhibition (100 µM) With Preincubation (ZIKV NS2B-NS3pro [2]; [9]),% ZIKV NS2B/NS3pro Inhibition (100 µM) Without Preincubation (ZIKV NS2B-NS3pro [2]; [10]),Hill Slope Replica 1 (ZIKV NS2B-NS3pro [2]),Hill Slope Replica 2 (ZIKV NS2B-NS3pro [2]),CC50 at 72 h [3],Cell viability as percentage of cell control (mean absorbance / CELL) ([4]; compound 12.5 µM),Cell viability as percentage of cell control (mean absorbance / CELL) ([4]; compound 25 µM),Cell viability as percentage of cell control (mean absorbance / CELL) ([4]; compound 50 µM),Cell viability as percentage of cell control (mean absorbance / CELL) ([4]; compound 100 µM),also measured
COc1ccc(Cl)c2sc(NC(=O)c3ccccc3NS(=O)(=O)c3ccc(C)cc3)nc12 [LEE-3],–,–,–,–,–,–,–,–,–,–,–,–,–,–,cause of inhibition after resynthesis (ZIKV NS2B-NS3pro [1]): due to colloidal aggregation; mode of inhibition (ZIKV NS2B-NS3pro [1]): competitive inhibitors
Cc1ccc(S(=O)(=O)Nc2ccccc2C(=O)Nc2nc3ccccc3[nH]2)cc1 [Compound 7],87 ± 0.04%,27 ± 6%,88 ± 5%,12 ± 17%,89 ± 7%,100 ± 0%,90 ± 8%,2.014,1.056,32.8 ± 1.55 µM,64.4267,53.8262,38.9416,40.3696,–
O=C(Nc1nc2cnccc2[nH]1)c1ccccc1NS(=O)(=O)c1ccc(F)cc1 [Compound 3],–,–,–,–,–,–,56 ± 11%,–,–,120 ± 3.68 µM,86.7535,77.5537,72.6654,56.6548,–
O=C(Nc1nc2cccnc2[nH]1)c1ccccc1NS(=O)(=O)c1ccc(Cl)cc1 [Compound 1],45 ± 0.1%,26 ± 7%,93 ± 8%,47 ± 34%,69 ± 6%,100 ± 0%,100 ± 0%,3.046,1.585,22 ± 0.79 µM,61.7079,–,24.3591,20.1848,inhibition at 25 µM (cruzain; compound 25 µM): 97 ± 7%
O=C(Nc1nc2cnccc2[nH]1)c1ccccc1NS(=O)(=O)c1ccc(Cl)cc1 [Compound 4],44 ± 0.2%,29 ± 8%,93 ± 8%,25 ± 15%,45 ± 4%,100 ± 0%,100 ± 0%,0.8047,0.5347,57.1 ± 1.86 µM,84.584,66.5687,49.8167,25.183,% Cruzain Inhibition (cruzain; compound 25 µM): no inhibitory activity; inhibition at 25 µM (cruzain; compound 25 µM): -12 ± 9.1%
O=C(Nc1nc2cccc(Cl)c2[nH]1)c1ccccc1NS(=O)(=O)c1ccc(F)cc1 [Compound 5],–,–,93 ± 3%,6 ± 8%,94 ± 8%,100 ± 0%,100 ± 0%,3.333,1.731,< 12.5 µM,44.8735,19.4433,14.9121,15.1318,% ZIKV NS2B/NS3pro Inhibition [Enzyme] = 0.2 nM (ZIKV NS2B-NS3pro [2]; [11]): 62 ± 0.1%; % ZIKV NS2B/NS3pro Inhibition [Enzyme] = 2 nM (ZIKV NS2B-NS3pro [2]; compound 10 µM (close to IC50)): 23 ± 8%; inhibition at 10 µM (cruzain; compound 10 µM): 69 ± 24%
O=C(Nc1nc2cccnc2[nH]1)c1ccccc1NS(=O)(=O)c1ccc(F)cc1 [Compound 2],30 ± 0.1%,28 ± 7%,94 ± 7%,30 ± 19%,32 ± 2%,100 ± 0%,100 ± 0%,0.731,4.089,32.5 ± 1.95 µM,77.4987,53.4692,30.8677,25.9519,inhibition at 25 µM (cruzain; compound 25 µM): 42 ± 11%
COc1ccc(S(=O)(=O)Nc2ccccc2C(=O)Nc2nc3ccccc3s2)cc1 [LEE-2],–,–,–,–,–,–,–,–,–,–,–,–,–,–,cause of inhibition after resynthesis (ZIKV NS2B-NS3pro [1]): due to colloidal aggregation; mode of inhibition (ZIKV NS2B-NS3pro [1]): competitive inhibitors
NC(=O)c1ncn([C@@H]2O[C@H](CO)[C@@H](O)[C@H]2O)n1 [Ribavirin],–,–,–,–,–,–,–,–,–,–,–,–,–,–,CC50 [5]: > 100 µM; EC50 (ZIKV (PE243)): 4.1 ± 0.35 µM
COc1cccc2sc(NC(=O)c3ccccc3CS(=O)(=O)c3ccccc3)nc12 [Compound 8],–,–,–,–,–,–,–,–,–,23.6 ± 1 µM,57.338,54.3981,21.2269,17.0602,"% ZIKV NS2B/NS3pro Inhibition (100 µM) Without Preincubation (ZIKV NS2B-NS3pro [2]; compound at 10 µM (footnote a), 0.005% Tween-20): 15 ± 11%; % ZIKV NS2B/NS3pro Inhibition (100 µM) With Preincubation (ZIKV NS2B-NS3pro [2]; compound at 10 µM (footnote a, solubility limit), 10 min preincubation, 0.005% Tween-20, enzyme 0.2 nM): 8 ± 8%"
COc1cccc2nc(C(=O)c3ccccc3NS(=O)(=O)c3ccc(F)c(C)c3)[nH]c12 [Compound 12],–,–,90 ± 5%,5 ± 7%,87 ± 18%,100 ± 0%,91 ± 9%,1.517,1.742,< 12.5 µM,28.1944,14.2593,9.861,10,IC50 (ZIKV NS2B-NS3pro [2]; [12]): 5 ± 1 µM; % ZIKV NS2B/NS3pro Inhibition [Enzyme] = 0.2 nM (ZIKV NS2B-NS3pro [2]; [11]): 94 ± 0.06%; % ZIKV NS2B/NS3pro Inhibition [Enzyme] = 2 nM (ZIKV NS2B-NS3pro [2]; compound 10 µM (close to IC50)): 30 ± 10%; IC50 (ZIKV NS2B-NS3pro [2]; [13]): 6 µM
O=C(Nc1nc2ccccc2[nH]1)c1ccccc1NS(=O)(=O)c1ccc(Cl)cc1 [Compound 6],99 ± 0.4%,66 ± 21%,89 ± 6%,7 ± 9%,55 ± 20%,100 ± 0%,99 ± 2%,6.697,4.362,38.4 ± 2.18 µM,63.7676,61.7079,41.6329,48.6633,solubility in the cruzain assay buffer [6]: insoluble
Cc1cc(C(=O)c2ccccc2NS(=O)(=O)c2ccc(F)cc2)nn1-c1ccccc1 [Compound 13],43 ± 0.1%,26 ± 10%,100 ± 0%,45 ± 9%,57 ± 15%,95 ± 2%,100 ± 1%,5.057,5.334,< 12.5 µM,41.6898,25.5093,21.6435,12.8704,IC50 (ZIKV NS2B-NS3pro [2]; [12]): 28 ± 1 µM; IC50 (ZIKV NS2B-NS3pro [2]; [13]): 29 µM; solubility in the cruzain assay buffer [6]: insoluble
